Entries after “also recorded” stand apart in the source; their conditions may differ.
Assays:
human NKT cells = details: cited from earlier work
NKT cells = details: non-patent document 10; cited from earlier work
IL-12 = IL-12 content in serum (Cytometric bead array) after tail vein administration of synthetic glycolipid to mice; format: in vivo, C57BL/6 mice; details: Experimental Example 3; 2, 0.2 or 0.02 μg/mouse; 3 and 6 hr; FIG. 9
Description: (§1) DMSO solutions (1 mg/mL concentration) of α-GalCer, carba-glycolipid A, compound 2-9, compound 3-4, compound 3-7 and compound 3-10 were prepared. The above-mentioned DMSO solutions were diluted with saline (manufactured by Otsuka Pharmaceutical Co., Ltd.) containing 0.5% Tween 20 (Bio-Rad) such that the dose would be 100 μg/kg body weight when 200 μL is administered to one mouse from the tail vein. […]
The content of IL-12 in the serum after lapse of 3, 6 and 12 hr from the administration was measured by Cytometric bead array system (BD Biosciences), which is one kind of the ELISA method. […]
By a method similar to Experimental Example 1, the content of IL-12(p70) in the serum after lapse of 3 and 6 hr from the administration of α-GalCer, compound 2-9, compound 3-4, compound 3-7, compound 3-10, compound 3-13 and compound 3-16 was measured. […]
By a method similar to Experimental Example 1 except that the dose of α-GalCer and compound 2-9 was 2 μg/mouse, 0.2 μg/mouse or 0.02 μg/mouse, the content of IL-12(p70) in the serum after lapse of 3 and 6 hr from the administration of α-GalCer and compound 2-9 was measured. […]

IFN-γ = IFN-γ content in serum (sandwich ELISA) after tail vein administration of synthetic glycolipid to mice; format: in vivo, C57BL/6 mice; details: for IFN-γ production level in serum compared with α-GalCer and carba-glycolipid A: 100 μg/kg body weight, FIG. 1; for IFN-γ production level in serum compared with α-GalCer and carba-glycolipid A / IFN-γ production level in serum compared with α-GalCer: 6-60 hr
Description: DMSO solutions (1 mg/mL concentration) of α-GalCer, carba-glycolipid A, compound 2-9, compound 3-4, compound 3-7 and compound 3-10 were prepared. The above-mentioned DMSO solutions were diluted with saline (manufactured by Otsuka Pharmaceutical Co., Ltd.) containing 0.5% Tween 20 (Bio-Rad) such that the dose would be 100 μg/kg body weight when 200 μL is administered to one mouse from the tail vein.
Each of the prepared solutions (200 μL) of carba-glycolipid A, compound 2-9, compound 3-4, compound 3-7 and compound 3-10 was injected to C57BL/6 mice (5 per group) from the tail vein. α-GalCer was used as a control substance, and 200 μL of α-GalCer solution prepared to a dose of 100 μg/kg body weight according to a similar method was injected from the tail vein. A group administered with a medium (200 μL of saline containing 0.5% Tween 20) was taken as a negative control. The blood (80 μL) was taken from the orbital plexus venosus 6, 12, 24, 36, 48 and 60 hr after administration, and the serum was prepared.
The content of IFN-γ in the serum after lapse of 6, 12, 24, 36, 48 and 60 hr from the administration was measured by sandwich ELISA (ENDOGEN). The measurement results (average value) of the IFN-γ production level and the standard deviation (STDEV) thereof are shown in FIG. 1.
By a method similar to Experimental Example 1, the content of IFN-γ in the serum after lapse of 6, 12, 24, 36, 48 and 60 hr from the administration of α-GalCer, compound 2-9, compound 3-4, compound 3-7, compound 3-10, compound 3-13 and compound 3-16 was measured. The measurement results (average value) of the IFN-γ production level and the standard deviation (STDEV) thereof are shown in FIG. 4.
By a method similar to Experimental Example 1 except that the dose of α-GalCer was 2 μg/mouse and the dose of compound 2-9 was 2 μg/mouse, 0.2 μg/mouse, 0.02 μg/mouse, 0.002 μg/mouse or 0.0002 μg/mouse, the content of IFN-γ in the serum after lapse of 6, 12, 24, 36, 48 and 60 hr from the administration of α-GalCer and compound 2-9 was measured. The measurement results (average value) of the IFN-γ production level and the standard deviation (STDEV) thereof are shown in FIG. 5.

IL-4 = IL-4 content in serum (Cytometric bead array) after tail vein administration of synthetic glycolipid to mice; format: in vivo, C57BL/6 mice; details: Experimental Example 3; 2, 0.2 or 0.02 μg/mouse; 3 and 6 hr; FIG. 7
Description: as §1
The content of IL-4 in the serum after lapse of 3, 6 and 12 hr from the administration was measured by Cytometric bead array system (BD Biosciences), which is one kind of the ELISA method. […]
By a method similar to Experimental Example 1, the content of IL-4 in the serum after lapse of 3 and 6 hr from the administration of α-GalCer, compound 2-9, compound 3-4, compound 3-7, compound 3-10, compound 3-13 and compound 3-16 was measured. […]
By a method similar to Experimental Example 1 except that the dose of α-GalCer and compound 2-9 was 2 μg/mouse, 0.2 μg/mouse or 0.02 μg/mouse, the content of IL-4 in the serum after lapse of 3 and 6 hr from the administration of α-GalCer and compound 2-9 was measured. […]

[1] = non-patent document 7; cited from earlier work
[2] = Experimental Example 1, tail vein
[3] = Experimental Example 1, conclusion from IFN-γ, IL-4 and IL-12 levels
[4] = Experimental Example 2, conclusion from IFN-γ, IL-4 and IL-12 levels
[5] = Experimental Example 2, tail vein, FIG. 4

Row | SMILES | IFN-γ production level in serum compared with α-GalCer and carba-glycolipid A (IFN-γ; [2]) | Selective induction of IFN-γ production compared to α-GalCer and carba-glycolipid A (IFN-γ; [3]) | Selective induction of IFN-γ production compared to α-GalCer (IFN-γ; [4]) | IFN-γ production level in serum compared with α-GalCer (IFN-γ; [5]) | also measured
1 | CCCCCCCCCCCCCCCCCCCCCCCCCC(=O)N[C@@H](CO[C@H]1CC(CO)[C@H](O)C(O)C1O)[C@H](O)[C@H](O)CCCCCCCCCCCCCC (stereo partly shown) [carba-glycolipid A] |  |  |  |  | Activity on human NKT cells in vitro (human NKT cells): strong activity; Induction of IFN-γ production by NKT cells (NKT cells): strongly induces IFN-γ production
2 | CCCCCCCCCCCCCCCCCCCCCCCCCC(=O)N[C@@H](CO[C@H]1OC(COC)[C@H](O)[C@H](O)C1O)[C@H](O)[C@H](O)CCCCCCCCCCCCCC (stereo partly shown) [compound 2-9] | larger amount of IFN-γ than α-GalCer and carba-glycolipid A; also recorded: most strongly | selectively induced production of IFN-γ in larger amounts | selectively induced production of IFN-γ in larger amounts | larger amount of IFN-γ than α-GalCer; also recorded: most strongly | IL-12(p70) production level in serum as compared with α-GalCer (IL-12): up to 4 fold; IFN-γ production level in serum compared with α-GalCer (IFN-γ; Experimental Example 3, compound 2-9 at 2 to 0.0002 μg/mouse, α-GalCer 2 μg/mouse, FIG. 5): larger amount of IFN-γ than α-GalCer even by administration at a lower concentration; Selective induction of IFN-γ production compared to α-GalCer (IFN-γ; Experimental Example 3, lower doses of compound 2-9): selectively induced production of IFN-γ in larger amounts; IL-4 production level in serum (IL-4): decreased as the dose of compound 2-9 was reduced
3 | CCCCCCCCCCCCCCCCCCCCCCCCCC(=O)N[C@@H](CO[C@H]1OC(CC)[C@H](O)[C@H](O)C1O)[C@H](O)[C@H](O)CCCCCCCCCCCCCC (stereo partly shown) [compound 3-4] | larger amount of IFN-γ than α-GalCer and carba-glycolipid A | selectively induced production of IFN-γ in larger amounts | selectively induced production of IFN-γ in larger amounts | larger amount of IFN-γ than α-GalCer | 
4 | CCCCCCCCCCCCCCCCCCCCCCCCCC(=O)N[C@@H](CO[C@H]1OC(CF)[C@H](O)[C@H](O)C1O)[C@H](O)[C@H](O)CCCCCCCCCCCCCC (stereo partly shown) [compound 3-7] | larger amount of IFN-γ than α-GalCer and carba-glycolipid A | selectively induced production of IFN-γ in larger amounts | selectively induced production of IFN-γ in larger amounts | larger amount of IFN-γ than α-GalCer | 
5 | CCCCCCCCCCCCCCCCCCCCCCCCCC(=O)N[C@@H](CO[C@H]1OC(C)[C@H](O)[C@H](O)C1O)[C@H](O)[C@H](O)CCCCCCCCCCCCCC (stereo partly shown) [compound 3-10] | larger amount of IFN-γ than α-GalCer and carba-glycolipid A | selectively induced production of IFN-γ in larger amounts | selectively induced production of IFN-γ in larger amounts | larger amount of IFN-γ than α-GalCer | 
6 | CCCCCCCCCCCCCCCCCCCCCCCCCC(=O)N[C@@H](CO[C@H]1OC(COCC)[C@H](O)[C@H](O)C1O)[C@H](O)[C@H](O)CCCCCCCCCCCCCC (stereo partly shown) [compound 3-13] |  |  | selectively induced production of IFN-γ in larger amounts | larger amount of IFN-γ than α-GalCer | 
7 | CCCCCCCCCCCCCCCCCCCCCCCCCC(=O)N[C@@H](CO[C@H]1OC(COCCC)[C@H](O)[C@H](O)C1O)[C@H](O)[C@H](O)CCCCCCCCCCCCCC (stereo partly shown) [compound 3-16] |  |  | selectively induced production of IFN-γ in larger amounts | larger amount of IFN-γ than α-GalCer | 
8 | CCCCCCCCCCCCCCCCCCCCCCCCCC(=O)N[C@@H](COC1OC(CO)C(O)C(O)C1O)[C@H](O)[C@H](O)CCCCCCCCCCCCCC (stereo partly drawn) [α-GalCer, reference compound] |  |  |  |  | IFN-γ/IL-4 ratio (IFN-γ; Experimental Example 1): 2; Immunostimulatory activity in a series of synthesis analogs [1]: shows the strongest activity

Source: patent US8551959B2, “Glycolipid and use thereof” (RIKEN, priority 2008, dated 2013)
